Reference: PubChem BioAssay AID330 (DTP/NCI, 2004)
Values joined by “and” are separate entries in the source; they are usually repeats but may differ in a detail not shown here. Equal values may be shown once. Toxic doses and inconclusive results are not listed. The calls were made as follows: active = survival T/C of 150% or more; inactive = T/C below 125% in these data.

System: P388 leukemia ip, CD2F1 mice, survival T/C
Experiment: NCI In Vivo Anticancer Drug Screen. Data for tumor model P388 Leukemia (intraperitoneal) in CD2F1 (CDF1) mice
Details: endpoint: median survival time, higher = longer survival
Outline: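 Mice carrying the transplanted tumor received test compound or vehicle. Survival was recorded in each group, and the value is the treated-group measurement divided by that of the vehicle-treated control group.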

[1] = dose: 50.0 mg/kg/injection, schedule: Q01DX009 (ip), vehicle: saline
[2] = dose: 100.0 mg/kg/injection, schedule: Q01DX009 (ip), vehicle: saline
[3] = dose: 200.0 mg/kg/injection, schedule: Q01DX009 (ip), vehicle: saline
[4] = dose: 50.0 mg/kg/injection, schedule: Q01DX009 (ip), vehicle: saline with Tween-80
[5] = dose: 100.0 mg/kg/injection, schedule: Q01DX009 (ip), vehicle: saline with Tween-80
[6] = dose: 200.0 mg/kg/injection, schedule: Q01DX009 (ip), vehicle: saline with Tween-80
[7] = dose: 60.0 mg/kg/injection, schedule: Q01DX005 (ip), vehicle: Klucel (hydroxypropylcellulose) (HPC)
[8] = dose: 120.0 mg/kg/injection, schedule: Q01DX005 (ip), vehicle: Klucel (hydroxypropylcellulose) (HPC)

Measured: T/C

CN(/N=C\c1ccccc1)C(=N)N(C)/N=C/c1ccccc1
inactive: dose: 100.0 mg/kg/injection, schedule: Q01DX001 (ip), vehicle: Klucel (hydroxypropylcellulose) (HPC) 91 % of control | dose: 200.0 mg/kg/injection, schedule: Q01DX001 (ip), vehicle: Klucel (hydroxypropylcellulose) (HPC) 96 % of control

CC1=CC2OC3CC(OC(=O)/C=C/C=C/C(O)C(C)O)C(C)(C2(C)CC1)C31CO1 (centres undefined)
inactive: dose: 0.16 mg/kg/injection, schedule: Q01DX009 (ip), vehicle: saline + alcohol 109 % of control | dose: 0.31 mg/kg/injection, schedule: Q01DX009 (ip), vehicle: saline + alcohol 113 % of control | dose: 0.62 mg/kg/injection, schedule: Q01DX009 (ip), vehicle: saline + alcohol 109 % of control | dose: 1.25 mg/kg/injection, schedule: Q01DX009 (ip), vehicle: saline + alcohol 109 % of control | dose: 2.5 mg/kg/injection, schedule: Q01DX009 (ip), vehicle: saline + alcohol 120 % of control | dose: 5.0 mg/kg/injection, schedule: Q01DX009 (ip), vehicle: saline + alcohol 123 % of control

CC(C)(C)C(=O)CC(=O)C(F)(F)C(F)(F)C(F)(F)F.CC(C)(C)C(=O)CC(=O)C(F)(F)C(F)(F)C(F)(F)F.CC(C)(C)C(=O)CC(=O)C(F)(F)C(F)(F)C(F)(F)F.[Gd]
inactive: dose: 60.0 mg/kg/injection, schedule: Q01DX005 (ip), vehicle: saline with Tween-80 105 % of control | dose: 120.0 mg/kg/injection, schedule: Q01DX005 (ip), vehicle: saline with Tween-80 110 % of control | dose: 240.0 mg/kg/injection, schedule: Q01DX005 (ip), vehicle: saline with Tween-80 105 % of control

Cn1c(=O)c2nc(-c3ccc(Cl)c(Cl)c3)oc2n(C)c1=O
inactive: [1] 109 % of control | [2] 111 % of control | [3] 100 % of control

CNCC(C(=O)c1ccccc1)C(=O)c1ccccc1
inactive: dose: 50.0 mg/kg/injection, schedule: Q01DX005 (ip), vehicle: saline with Tween-80 95 % of control | dose: 100.0 mg/kg/injection, schedule: Q01DX005 (ip), vehicle: saline with Tween-80 101 % of control | dose: 200.0 mg/kg/injection, schedule: Q01DX005 (ip), vehicle: saline with Tween-80 110 % of control

CCCC(CCC)=NCCN=C(CCC)CCC
inactive: [1] 100 % of control | dose: 50.0 mg/kg/injection, schedule: Q04DX003 (ip), vehicle: saline 95 % of control | [2] 100 % of control | dose: 100.0 mg/kg/injection, schedule: Q04DX003 (ip), vehicle: saline 95 % of control | [3] 104 % of control | dose: 200.0 mg/kg/injection, schedule: Q04DX003 (ip), vehicle: saline 91 % of control

CCCCCCCCCCCC(=O)OC1CCC2(C)C(=CCC3C2CCC2(C)C(C(C)CCC(CC)C(C)C)CCC32)C1 (centres undefined)
inactive: [4] 104 % of control | [5] 95 % of control | [6] 90 % of control

c1ccc(-c2cc(-c3cc(-c4ccccn4)[nH]n3)n[nH]2)nc1
inactive: dose: 60.0 mg/kg/injection, schedule: Q01DX005 (ip), vehicle: saline + Tween-80 + alcohol 91 % of control | dose: 120.0 mg/kg/injection, schedule: Q01DX005 (ip), vehicle: saline + Tween-80 + alcohol 94 % of control | dose: 240.0 mg/kg/injection, schedule: Q01DX005 (ip), vehicle: saline + Tween-80 + alcohol 104 % of control

CC1(C)OC(=O)N=C1c1ccc(Cl)cc1
inactive: [7] 107 % of control | [8] 101 % of control

COC(=O)NC1C(C)OC(OC2C/C=C(/C)C3C=CC4C(OC5CC(OC6CCC(OC7CC(O)C(OC8CCC(O)C(C)O8)C(C)O7)C(C)O6)C(OC(C)=O)C(C)O5)C(C)CC(C)C4C3(C)/C(O)=C3/C(=O)OC4(CC(C=O)=CC(O)C4/C=C\2C)C3=O)CC1(C)[N+](=O)[O-] (centres undefined)
inactive: dose: 2.25 mg/kg/injection, schedule: Q01DX005 (iv), vehicle: water 97 % of control | dose: 2.5 mg/kg/injection, schedule: Q01DX005 (ip), vehicle: water 106 % of control and 120 % of control | dose: 3.06 mg/kg/injection, schedule: Q01DX005 (ip), vehicle: water 121 % of control | dose: 3.35 mg/kg/injection, schedule: Q01DX005 (iv), vehicle: water 96 % of control | dose: 4.49 mg/kg/injection, schedule: Q01DX005 (ip), vehicle: water 121 % of control | dose: 5.0 mg/kg/injection, schedule: Q01DX005 (ip), vehicle: water 121 % of control | dose: 5.0 mg/kg/injection, schedule: Q01DX005 (iv), vehicle: water 95 % of control | dose: 6.7 mg/kg/injection, schedule: Q01DX005 (ip), vehicle: water 118 % of control | dose: 7.47 mg/kg/injection, schedule: Q01DX005 (iv), vehicle: water 97 % of control | dose: 10.0 mg/kg/injection, schedule: Q01DX005 (ip), vehicle: water 121 % of control and 123 % of control and 124 % of control | dose: 11.14 mg/kg/injection, schedule: Q01DX005 (iv), vehicle: water 96 % of control

CCOP1(=O)N(C)CCN1C
inactive: dose: 12.5 mg/kg/injection, schedule: Q01DX009 (ip), vehicle: saline 117 % of control | dose: 25.0 mg/kg/injection, schedule: Q01DX009 (ip), vehicle: saline 111 % of control | [1] 101 % of control

COc1c2c(c(O)c3c1C(=O)c1cccc(O)c1C3=O)C(OC1CC(N)C(O)C(C)O1)CC(O)(C(C)=O)C2 (centres undefined)
inactive: dose: 12.5 mg/kg/injection, schedule: Q04DX003 (ip), vehicle: water 118 % of control | dose: 25.0 mg/kg/injection, schedule: Q04DX003 (ip), vehicle: water 118 % of control | dose: 50.0 mg/kg/injection, schedule: Q04DX003 (ip), vehicle: water 100 % of control

CC1=CCC[C@@H]2C1(C)CCC(C)[C@@]2(C)CC1=CC(=O)C=CC1=O (some centres undefined)
inactive: dose: 0.62 mg/kg/injection, schedule: Q01DX005 (ip), vehicle: saline with Tween-80 99 % of control | dose: 1.25 mg/kg/injection, schedule: Q01DX005 (ip), vehicle: saline with Tween-80 103 % of control | dose: 2.5 mg/kg/injection, schedule: Q01DX005 (ip), vehicle: saline with Tween-80 99 % of control | dose: 5.0 mg/kg/injection, schedule: Q01DX005 (ip), vehicle: saline with Tween-80 98 % of control | dose: 10.0 mg/kg/injection, schedule: Q01DX005 (ip), vehicle: saline with Tween-80 103 % of control

CC(C)(C)OC(=O)N/C=C/c1ccccc1
inactive: dose: 100.0 mg/kg/injection, schedule: Q04DX002 (ip), vehicle: suspension in saline 101 % of control | dose: 200.0 mg/kg/injection, schedule: Q04DX002 (ip), vehicle: suspension in saline 92 % of control | dose: 400.0 mg/kg/injection, schedule: Q04DX002 (ip), vehicle: suspension in saline 94 % of control

CNC(=O)CC(C(=O)O)N(C)C (centres undefined)
inactive: dose: 50.0 mg/kg/injection, schedule: Q01DX009 (ip), vehicle: water 98 % of control | dose: 100.0 mg/kg/injection, schedule: Q01DX009 (ip), vehicle: water 106 % of control | dose: 200.0 mg/kg/injection, schedule: Q01DX009 (ip), vehicle: water 107 % of control

CS/N=C(\c1ccccc1)N1CCOCC1
inactive: [7] 100 % of control | [8] 98 % of control

O=C(O)CSc1nnc2c3ccccc3c3ccccc3c2n1
inactive: dose: 12.5 mg/kg/injection, schedule: Q01DX009 (ip), vehicle: saline with Tween-80 97 % of control | dose: 25.0 mg/kg/injection, schedule: Q01DX009 (ip), vehicle: saline with Tween-80 100 % of control | [4] 100 % of control and 93 % of control | [5] 87 % of control | [6] 101 % of control

C=CCn1nnc(N)n1
inactive: dose: 100.0 mg/kg/injection, schedule: Q04DX003 (ip), vehicle: Klucel (hydroxypropylcellulose) (HPC) 111 % of control | dose: 200.0 mg/kg/injection, schedule: Q04DX003 (ip), vehicle: Klucel (hydroxypropylcellulose) (HPC) 109 % of control | dose: 400.0 mg/kg/injection, schedule: Q04DX003 (ip), vehicle: Klucel (hydroxypropylcellulose) (HPC) 105 % of control
